Structures can show the parent of a compound that is named as a salt.
target: T1, human DPP-IV (Homo sapiens, UniProt P27487); assay: DPP-IV activity assay (fluorogenic / colorimetric), IC50 determination; format: biochemical; conditions: natural human DPP-IV from human plasma pool or recombinant human DPP-IV; 37° C., pH 7.8
T1 construct: made in house; host or cells: Pichia pastoris
Description: Activity of DPP-IV inhibitors are tested with natural human DPP-IV derived from a human plasma pool or with recombinant human DPP-IV. Human citrate plasma from different donors is pooled, filtered through a 0.2 micron membrane under sterile conditions and aliquots of 1 ml are shock frozen and stored at −120° C. until used. In the colorimetric DPP-IV assay 5 to 10 μl human plasma and in the fluorometric assay 1.0 μl of human plasma in a total assay volume of 100 μl is used as an enzyme source. The cDNA of the human DPP-IV sequence of amino acid 31- to 766, restricted for the N-terminus and the transmembrane domain, is cloned into Pichia pastoris. Human DPP-IV is expressed and purified from the culture medium using conventional column chromatography including size exclusion and anion and cation chromatography. The purity of the final enzyme preparation of Coomassie blue SDS-PAGE is >95%. In the colorimetric DPP-IV assay 20 ng rec.-h DPP-IV and in the fluorometric assay 2 ng rec-h DPP-IV in a total assay volume of 100 μl is used as an enzyme source.
In the fluorogenic assay Ala-Pro-7-amido-4-trifluoromethylcoumarin (Calbiochem No 125510) is used as a substrate. A 20 mM stock solution in 10% DMF/H2O is stored at −20° C. until use. […]
Fluorescence is detected in a Perkin Elmer Luminescence Spectrometer LS 50B at an excitation wavelength of 400 nm and an emission wavelength of 505 nm continuously every 15 seconds for 10 to 30 minutes. Initial rate constants are calculated by best fit linear regression. The absorption of pNA liberated from the colorimetric substrate is detected in a Packard SpectraCount at 405 nm continuously every 2 minutes for 30 to 120 minutes. Initial rate constants are calculated by best fit linear regression. […]
IC50 determinations of test compounds are calculated by non-linear best fit regression of the DPP-IV inhibition of at least 5 different compound concentrations. Kinetic parameters of the enzyme reaction are calculated at least 5 different substrate concentrations and at least 5 different test compound concentrations.

T1 sequence (P27487 31-766): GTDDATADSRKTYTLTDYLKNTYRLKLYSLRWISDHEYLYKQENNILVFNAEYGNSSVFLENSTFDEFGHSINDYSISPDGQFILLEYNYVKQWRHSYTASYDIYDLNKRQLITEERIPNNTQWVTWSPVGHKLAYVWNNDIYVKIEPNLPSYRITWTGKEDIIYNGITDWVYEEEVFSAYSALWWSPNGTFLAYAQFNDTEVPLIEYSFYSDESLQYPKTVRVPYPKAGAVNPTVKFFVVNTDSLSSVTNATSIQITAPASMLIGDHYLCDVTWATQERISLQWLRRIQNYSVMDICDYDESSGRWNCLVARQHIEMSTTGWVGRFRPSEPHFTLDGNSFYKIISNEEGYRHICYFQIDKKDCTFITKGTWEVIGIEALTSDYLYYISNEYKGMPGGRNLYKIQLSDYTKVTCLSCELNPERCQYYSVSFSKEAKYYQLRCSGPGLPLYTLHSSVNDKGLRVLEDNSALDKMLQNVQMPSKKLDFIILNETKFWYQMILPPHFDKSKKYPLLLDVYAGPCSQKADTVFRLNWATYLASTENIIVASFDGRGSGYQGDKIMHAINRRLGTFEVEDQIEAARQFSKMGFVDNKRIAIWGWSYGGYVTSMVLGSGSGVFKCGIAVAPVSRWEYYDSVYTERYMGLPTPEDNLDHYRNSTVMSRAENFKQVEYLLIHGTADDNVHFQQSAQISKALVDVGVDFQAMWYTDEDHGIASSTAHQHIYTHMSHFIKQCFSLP

Row | IC50 [nM] | Structure (SMILES)
1 | 0.1 | COc1cc2c(cc1OCC(N)=O)CCN1C[C@H](c3cc(C)ccc3C)[C@@H](N)C[C@@H]21 (racemic) [Example 8, (2S,3S,11bS)- and (2R,3R,11bR)-2-[2-Amino-3-(2,5-dimethyl-phenyl)-10-methoxy-1,3,4,6,7,11b-hexahydro-2H-pyrido[2,1-a]isoquinolin-9-yloxy]-acetamide, hydrochloride]
2 | 1.1 | COc1cc2c(cc1OCC(=O)Nc1nn[nH]n1)CCN1C[C@H](c3cc(C)ccn3)[C@@H](N)C[C@@H]21 (racemic) [Example 13, (2S,3S,11bS)- and (2R,3R,11bR)-2-[2-Amino-10-methoxy-3-(4-methyl-pyridin-2-yl)-1,3,4,6,7,11b-hexahydro-2H-pyrido[2,1-a]isoquinolin-9-yloxy]-N-(2H-tetrazol-5-yl)-acetamide hydrochloride]
3 | 0.3 | COc1ccc2c(c1OCC(=O)N(C)C)CCN1C[C@H](c3cccc(C)c3)[C@@H](N)C[C@@H]21 (racemic) [Example 48, rac-2-((2S,3S,11bS)-2-Amino-9-methoxy-3-m-tolyl-1,3,4,6,7,11b-hexahydro-2H-pyrido[2,1-a]isoquinolin-8-yloxy)-N,N-dimethyl-acetamide]

Source: patent US20100222340A1, “SUBSTITUTED PYRIDO [1,2-a] ISOQUINOLINE DERIVATIVES” (priority 2004, published 2010)
